US20230233576A1, “ECLITASERTIB FOR USE IN TREATING CONDITIONS INVOLVING SYSTEMIC HYPERINFLAMMATORY RESPONSE” (priority 2020, published 2023)

Test system: laboratory markers of severe COVID-19 (D-dimer, leukocytes, lymphocytes, neutrophil to lymphocyte ratio, ferritin, LDH)
Assay: Phase 1b severe COVID-19 study: laboratory markers of severe COVID-19
Format: in vivo, human
Settings: for D-Dimer relative change from baseline, RIPK1 Inhibitor vs placebo, point estimate / Ferritin relative change from baseline, RIPK1 Inhibitor vs placebo, point estimate / Lactate Dehydrogenase relative change from baseline, RIPK1 Inhibitor vs placebo, point estimate / Leukocytes relative change from baseline, RIPK1 Inhibitor vs placebo, point estimate / Lymphocytes relative change from baseline, RIPK1 Inhibitor vs placebo, point estimate / Neutrophils/Lymphocytes (RATIO) relative change from baseline, RIPK1 Inhibitor vs placebo, point estimate: MMRM; for D-Dimer relative change from baseline, RIPK1 Inhibitor vs placebo, point estimate / Ferritin relative change from baseline, RIPK1 Inhibitor vs placebo, point estimate / Lactate Dehydrogenase relative change from baseline, RIPK1 Inhibitor vs placebo, point estimate / Leukocytes relative change from baseline, RIPK1 Inhibitor vs placebo, point estimate / Lymphocytes relative change from baseline, RIPK1 Inhibitor vs placebo, point estimate / Neutrophils/Lymphocytes (RATIO) relative change from baseline, RIPK1 Inhibitor vs placebo, point estimate / D-Dimer: point estimate of the relative change from baseline (geometric mean) / D-Dimer: point estimate of the relative change from baseline displayed as percent change / Ferritin: point estimate of the relative change from baseline (geometric mean) / Ferritin: point estimate of the relative change from baseline displayed as percent change / Lactate Dehydrogenase: point estimate of the relative change from baseline (geometric mean) / Lactate Dehydrogenase: point estimate of the relative change from baseline displayed as percent change / Leukocytes: point estimate of the relative change from baseline (geometric mean) / Leukocytes: point estimate of the relative change from baseline displayed as percent change / Lymphocytes: point estimate of the relative change from baseline (geometric mean) / Lymphocytes: point estimate of the relative change from baseline displayed as percent change / Neutrophils/Lymphocytes (RATIO): point estimate of the relative change from baseline (geometric mean) / Neutrophils/Lymphocytes (RATIO): point estimate of the relative change from baseline displayed as percent change: LOCF, Efficacy population
Text: For clinical assessment, the variables associated with endpoints were: • main inflammatory marker CRP • Oxygenation saturation and oxygen delivery (e.g. SpO2, SpO2/FiO2), Laboratory markers of severe COVID-19 including D-dimer, lactate dehydrogenase (LDH), ferritin and hematology laboratory (white blood cell count, differential blood lymphocytes, neutrophil to lymphocyte ratio) • Clinical status of participant (7-point ordinal scale) • Thrombolytic and vasopressor treatments
Other secondary clinical assessment endpoints included: • Number of Days without need for oxygen support and alive (oxygen saturation≥92% breathing room air) up to Day 28 • Numbers of Ventilator-free days and alive up to Day 28 • Change from baseline in markers of inflammation (White blood cell count, differential blood lymphocytes, neutrophil to lymphocyte ratio, IL-6) and D-Dimer at Day 7 and EOT • Incidence of Deaths up to Day 28 • Percentage of participants receiving thrombolytic treatment up to Day 28 • Percentage of participants receiving vasopressor treatment up to Day 28 • Numbers of Respiratory Failure-Free Days (RFFD) and alive up to Day 28
Exploratory clinical assessments endpoints included: • Change from baseline in ferritin and LDH at Day 7 and EOT • Proportion of participants per category of the 7-point clinical scale at EOT • Time to improvement by 2 points in category of 7-point clinical scale • Quantitative SARS-COV-2 viral load in blood at baseline and on Day 3, 5, 7 and EOT
The relative changes from baseline in laboratory markers of severe COVID-19 were analyzed for the two treatment groups and for the treatment comparison of RIPK1 Inhibitor versus placebo, at Day 7 and EOT (Table 22, Table 23, Table 24). See also FIGS. 14, 15, 16, 17, 18, and 19.

With `CN1C(=O)[C@@H](NC(=O)c2nnc(Cc3ccccc3)[nH]2)COc2cccnc21` [RIPK1 Inhibitor, (S)-5-benzyl-N-(5-methyl-4-oxo-2,3,4,5-tetrahydropyrido[3,2-b][1,4]oxazepin-3-yl)-4H-1,2,4-triazole-3-carboxamide] the “D-Dimer relative change from baseline, RIPK1 Inhibitor vs placebo, point estimate” value (600 mg, Day 7) was 0.88, the “Ferritin relative change from baseline, RIPK1 Inhibitor vs placebo, point estimate” value (600 mg, Day 7) was 0.96 and the “Lactate Dehydrogenase relative change from baseline, RIPK1 Inhibitor vs placebo, point estimate” value (600 mg, Day 7) was 0.80. For the same molecule, the “Leukocytes relative change from baseline, RIPK1 Inhibitor vs placebo, point estimate” value (600 mg, Day 7) was 0.87, the “Lymphocytes relative change from baseline, RIPK1 Inhibitor vs placebo, point estimate” value (600 mg, Day 7) was 1.02 and the “Neutrophils/Lymphocytes (RATIO) relative change from baseline, RIPK1 Inhibitor vs placebo, point estimate” value (600 mg, Day 7) was 0.65. For the same molecule, the “difference with RIPK1 Inhibitor versus placebo for ferritin” value (600 mg, Day 7 and EOT) was “No differences”, the “D-Dimer relative change from baseline, RIPK1 Inhibitor vs placebo, point estimate” value (600 mg, EOT) was 1.07 and the “Ferritin relative change from baseline, RIPK1 Inhibitor vs placebo, point estimate” value (600 mg, EOT) was 0.98. The “Lactate Dehydrogenase relative change from baseline, RIPK1 Inhibitor vs placebo, point estimate” value (600 mg, EOT) was 0.85, the “Leukocytes relative change from baseline, RIPK1 Inhibitor vs placebo, point estimate” value (600 mg, EOT) was 1.03 and the “Lymphocytes relative change from baseline, RIPK1 Inhibitor vs placebo, point estimate” value (600 mg, EOT) was 1.03. The “Neutrophils/Lymphocytes (RATIO) relative change from baseline, RIPK1 Inhibitor vs placebo, point estimate” value (600 mg, EOT) was 0.67, the “D-Dimer: point estimate of the relative change from baseline (geometric mean)” value (Day 03) was 1.00 and the “D-Dimer: point estimate of the relative change from baseline displayed as percent change” value (Day 03) was −0.31%. For the same molecule, the “Ferritin: point estimate of the relative change from baseline (geometric mean)” value (Day 03) was 3.43, the “Ferritin: point estimate of the relative change from baseline displayed as percent change” value (Day 03) was 242.68% and the “Lactate Dehydrogenase: point estimate of the relative change from baseline (geometric mean)” value (Day 03) was 2.42. For the same molecule, the “Lactate Dehydrogenase: point estimate of the relative change from baseline displayed as percent change” value (Day 03) was 141.68%, the “Leukocytes: point estimate of the relative change from baseline (geometric mean)” value (Day 03) was 6.10 and the “Leukocytes: point estimate of the relative change from baseline displayed as percent change” value (Day 03) was 509.93%. For the same molecule, the “Lymphocytes: point estimate of the relative change from baseline (geometric mean)” value (Day 03) was 1.35, the “Lymphocytes: point estimate of the relative change from baseline displayed as percent change” value (Day 03) was 34.70% and the “Neutrophils/Lymphocytes (RATIO): point estimate of the relative change from baseline (geometric mean)” value (Day 03) was 2.01. The “Neutrophils/Lymphocytes (RATIO): point estimate of the relative change from baseline displayed as percent change” value (Day 03) was 100.80%, the “D-Dimer: point estimate of the relative change from baseline (geometric mean)” value (Day 05) was 1.04 and the “D-Dimer: point estimate of the relative change from baseline displayed as percent change” value (Day 05) was 4.10%. For the same molecule, the “Ferritin: point estimate of the relative change from baseline (geometric mean)” value (Day 05) was 2.91, the “Ferritin: point estimate of the relative change from baseline displayed as percent change” value (Day 05) was 191.34% and the “Lactate Dehydrogenase: point estimate of the relative change from baseline (geometric mean)” value (Day 05) was 2.23. For the same molecule, the “Lactate Dehydrogenase: point estimate of the relative change from baseline displayed as percent change” value (Day 05) was 122.59%, the “Leukocytes: point estimate of the relative change from baseline (geometric mean)” value (Day 05) was 6.14 and the “Leukocytes: point estimate of the relative change from baseline displayed as percent change” value (Day 05) was 513.77%. For the same molecule, the “Lymphocytes: point estimate of the relative change from baseline (geometric mean)” value (Day 05) was 1.43, the “Lymphocytes: point estimate of the relative change from baseline displayed as percent change” value (Day 05) was 42.51% and the “Neutrophils/Lymphocytes (RATIO): point estimate of the relative change from baseline (geometric mean)” value (Day 05) was 1.89. For the same molecule, the “Neutrophils/Lymphocytes (RATIO): point estimate of the relative change from baseline displayed as percent change” value (Day 05) was 89.49%, the “D-Dimer: point estimate of the relative change from baseline (geometric mean)” value (Day 07) was 0.96 and the “D-Dimer: point estimate of the relative change from baseline displayed as percent change” value (Day 07) was −3.52%. The “Ferritin: point estimate of the relative change from baseline (geometric mean)” value (Day 07) was 2.80, the “Ferritin: point estimate of the relative change from baseline displayed as percent change” value (Day 07) was 179.61% and the “Lactate Dehydrogenase: point estimate of the relative change from baseline (geometric mean)” value (Day 07) was 2.10. For the same molecule, the “Lactate Dehydrogenase: point estimate of the relative change from baseline displayed as percent change” value (Day 07) was 110.26%, the “Leukocytes: point estimate of the relative change from baseline (geometric mean)” value (Day 07) was 6.15 and the “Leukocytes: point estimate of the relative change from baseline displayed as percent change” value (Day 07) was 514.60%. For the same molecule, the “Lymphocytes: point estimate of the relative change from baseline (geometric mean)” value (Day 07) was 1.52, the “Lymphocytes: point estimate of the relative change from baseline displayed as percent change” value (Day 07) was 51.69% and the “Neutrophils/Lymphocytes (RATIO): point estimate of the relative change from baseline (geometric mean)” value (Day 07) was 1.74. For the same molecule, the “Neutrophils/Lymphocytes (RATIO): point estimate of the relative change from baseline displayed as percent change” value (Day 07) was 74.47%, the “D-Dimer: point estimate of the relative change from baseline (geometric mean)” value (Day 15) was 0.96 and the “D-Dimer: point estimate of the relative change from baseline displayed as percent change” value (Day 15) was −3.71%. The “Ferritin: point estimate of the relative change from baseline (geometric mean)” value (Day 15) was 2.66, the “Ferritin: point estimate of the relative change from baseline displayed as percent change” value (Day 15) was 166.34% and the “Lactate Dehydrogenase: point estimate of the relative change from baseline (geometric mean)” value (Day 15) was 2.05. The “Lactate Dehydrogenase: point estimate of the relative change from baseline displayed as percent change” value (Day 15) was 104.58%, the “Leukocytes: point estimate of the relative change from baseline (geometric mean)” value (Day 15) was 6.60 and the “Leukocytes: point estimate of the relative change from baseline displayed as percent change” value (Day 15) was 560.21%. For the same molecule, the “Lymphocytes: point estimate of the relative change from baseline (geometric mean)” value (Day 15) was 1.63, the “Lymphocytes: point estimate of the relative change from baseline displayed as percent change” value (Day 15) was 63.48% and the “Neutrophils/Lymphocytes (RATIO): point estimate of the relative change from baseline (geometric mean)” value (Day 15) was 1.66. The “Neutrophils/Lymphocytes (RATIO): point estimate of the relative change from baseline displayed as percent change” value (Day 15) was 65.55%.
